Data: patent EP0449346B1, “4-Piperidinyl-ergoline derivatives” (PHARMACIA S.p.A., priority 1990, dated 1991)

System: rats with unilateral 6-hydroxy dopamine-induced lesion of the dopaminergic nigrostriatal patway
Assay: Turning behaviour in rats: induction of controlateral turnings after a single treatment
Type: in vivo
Source text: More in particular, the ergoline derivatives according to the invention are active as antiparkinson agents, owing to their dopaminergic activity. The dopaminergic activity is indicated e.g. by an induction of controlateral turnings in rats with unilateral 6-hydroxy dopamine-induced lesion of the dopaminergic nigrostriatal patway. [According to the principles of N.Ungerstedt et al., Brain Research 24,485 (1970)].

[1] = single treatment, 0.5 mg/Kg s.c., in 6 hours
[2] = single treatment, 0.5 mg/Kg s.c., turning rats / treated rats

CC(C)C[C@H]1C(=O)N2CCC[C@H]2[C@]2(O)O[C@](NC(=O)[C@@H]3C=C4c5cccc6[nH]c(Br)c(c56)C[C@H]4N(C)C3)(C(C)C)C(=O)N12 [Bromocriptine, bromocriptine, reference compound]
Number of controlateral turns (X) in 6 hours (rat, in vivo, sc, 1 mg/kg): 1920
Turning rats Treated rats (rat, in vivo, sc, 1 mg/kg): 6/9

CN1C[C@H](CC2CC(=O)NC(=O)C2)C=C2c3cccc4[nH]cc(c34)C[C@H]21 [Example 1, 4-[(6-Methylergolen-Δ9,10-8β-yl)methyl]-piperidin-2,6-dione]
Number of controlateral turns (X) in 6 hours [1]: 1540
Turning rats Treated rats [2]: 4/4

CN1C(=O)CC(C[C@@H]2C=C3c4cccc5[nH]cc(c45)C[C@H]3N(C)C2)CC1=O [Example 5, 1-Methyl-4-[(6-methylergolen-Δ9,10-8β-yl)methyl]-piperidin-2,6-dione]
Number of controlateral turns (X) in 6 hours [1]: 1830
Turning rats Treated rats [2]: 5/5
